In patent US8063043B2, “Salts of N-[6-cis-2,6-dimethylmorpholin-4-yl)pyridine-3-yl]-2-methyl-4′-(trifluoromethoxy)[1,1′-biphenyl]-3-carboxamide” (Novartis AG, priority 2008, dated 2011):
Like-named read-outs stand apart in the source and are kept apart here.

Assay: Rat PK of suspension formulations, free form vs diphosphate salt
Assay type: in vivo
[1] = 3.0 mg/kg PO dose in suspension, mean
[2] = in vivo, 3.0 mg/kg PO dose in suspension, mean
[3] = in vivo, IV 3 mg/kg, mean, n = 2

With `Cc1c(C(=O)Nc2ccc(N3C[C@@H](C)O[C@@H](C)C3)nc2)cccc1-c1ccc(OC(F)(F)F)cc1` [Free base] the AUCinf/dose [1] was 171 nM·h/mg/kg, the AUClast/dose [1] was 170 nM·h/mg/kg and the Cmax/Dose [1] was 78.9 nM/mg/kg. For the same compound, the AUCinf/dose (IV 3 mg/kg, mean, n = 2) was 5840 nM·h/mg/kg, the AUClast/dose (IV 3 mg/kg, mean, n = 2) was 5830 nM·h/mg/kg and the bioavailability (in vivo, 3.0 mg/kg PO dose in suspension) was 3%. For the same compound, the AUC(0-inf) [2] was 0.512 µM·h, the AUC(0-t) [2] was 0.51 µM·h and the tmax [2] was 30 min. For the same compound, the Cmax (in vivo, 3.0 mg/kg PO dose in suspension, mean, read-out: C0/Cmax) was 0.237 µM, the AUC(0-inf) [3] was 17.5 µM·h and the AUC(0-t) [3] was 17.5 µM·h. It also gave a Cmax (in vivo, IV 3 mg/kg, mean, n = 2, read-out: C0/Cmax) of 6.11 µM.
